Assay results reported in PMC8583936, “Machine Learning Assisted Approach for Finding Novel High Activity Agonists of Human Ectopic Olfactory Receptors” (International Journal of Molecular Sciences, 2021).
“And” between values parts separate entries of the source, which are not always exact repeats. Equal entries are not always repeated.

What was measured:
OR2W1 = target: T1, OR2W1 (Homo sapiens, UniProt Q9Y3N9); experiment: Dual-Glo luciferase reporter gene assay, OR2W1 in Hana3A cells; assay type: cell-based; parameters: The open reading frames of ORs were amplified using Phusion polymerase; Rho-tag (first 20 amino acids of human rhodopsin) (N); expressed in transfected cells; host or cells: Hana3A cells (derived from HEK293T), pCI vector; co-transfected with human RTP1S, M3 receptor, CRE-Luc and SV40-RL; conditions: for activation of OR2W1 in dose-responses: Figure 4B; for Bottom / Top: log(agonist) vs. response (three parameters), normalized (L-400/R-400); for normilazed value = (L-400/R-400): three replicates
T1 sequence (Q9Y3N9 1-320): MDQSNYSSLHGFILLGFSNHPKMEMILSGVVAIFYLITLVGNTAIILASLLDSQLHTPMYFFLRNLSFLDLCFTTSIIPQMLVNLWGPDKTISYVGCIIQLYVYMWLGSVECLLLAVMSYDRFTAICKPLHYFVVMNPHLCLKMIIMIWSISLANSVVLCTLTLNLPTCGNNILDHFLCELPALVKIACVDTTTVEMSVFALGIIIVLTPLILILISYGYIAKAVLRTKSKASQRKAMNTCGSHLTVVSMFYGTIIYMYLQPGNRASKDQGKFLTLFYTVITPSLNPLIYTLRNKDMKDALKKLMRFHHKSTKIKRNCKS
Experimental: (§1) Hana3A cells were maintained in minimal essential medium containing 10% FBS (vol/vol) with penicillin-streptomycin and amphotericin B (1/200 each vol/vol) at 37 °C and 5% CO2. Hana3A cells are derived from HEK293T [57] and are optimized for OR studies as shown in several studies, compared to earlier OR expression in Sf9 insect cells in Gat et al., and in Xenopus oocytes, COS-7, PC12h and CHO-K1 cells in Katada et al..
(§2) The Dual-Glo luciferase assay system (Promega, Madison, WI, USA) was used to evaluate the functionality of wild-type OR1A1 and OR2W1 in an in vitro system. The open reading frames of ORs were amplified using Phusion polymerase (Thermo Fisher Scientific, Waltham, MA, USA). Amplified fragments were cloned into pCI expression vector (Promega, Madison, WI, USA) containing the sequence encoding the first 20 amino acids of human rhodopsin (Rho-tag) at N-terminal. Hana3A cells have been cultured and plated the day before transfection with 6 mL at 1/10 of a 100% confluence 100 mm plate into 96-well plates coated with poly D-lysine. After overnight incubation, the required genes were transfected using, for each plate, 5 ng SV40-RL, 10 ng CRE-Luc, 5 ng human RTP1S [72], 2.5 ng M3 receptor [73] and 5 ng of receptor (OR1A1, OR2W1 or empty vector Rho-pCI) plasmid. After around 18 h of transfection, cells were stimulated during 3.5 h by 25 µL of odorant diluted in CD293 + 1% glutamine + 30 µM CuCl2. Odorants were obtained from Sigma Aldrich (St. Louis, MO, USA) and diluted at 1 M concentration in DMSO as stock solutions. […] The luminescence of Firefly (Luc) and Renilla (Rluc) luciferase, were then sequentially monitored by injecting the corresponding substrate following the supplier’s protocol. The activity in each well was normalized as (Luc-400)/(Rluc-400). The response of the receptor was also normalized to its basal activity as (NLX/NL0)-1 where NL0 is the normalized luminescence value at 0 µM of odorant and NLX the value at X µM. […] Raw results were first analyzed with Excel (Microsoft Corporation, Albuquerque, NM, USA) and dose response curves, max efficacy and EC50 have been determined with GraphPrism 6 software (GraphPad Software, La Jolla, CA, USA). Areas under the curves (AUC) were calculated in Excel by summing all the OR responses at different concentrations for each odorant.

OR1A1 = target: T2, OR1A1 (Homo sapiens, UniProt Q9P1Q5); experiment: Dual-Glo luciferase reporter gene assay, OR1A1 in Hana3A cells; assay type: cell-based; parameters: The open reading frames of ORs were amplified using Phusion polymerase; Rho-tag (first 20 amino acids of human rhodopsin) (N); expressed in transfected cells; host or cells: Hana3A cells (derived from HEK293T), pCI vector; co-transfected with human RTP1S, M3 receptor, CRE-Luc and SV40-RL; conditions: for activation of OR1A1 in dose-responses: Figure 4A; for EC50 / Bottom / Top / normilazed value = (L-400/R-400) / LogEC50: OR1A1; for Bottom / Top: log(agonist) vs. response (three parameters), normalized (L-400/R-400); for normilazed value = (L-400/R-400) / LogEC50: log[molecule]; for normilazed value = (L-400/R-400): three replicates; for LogEC50: M
T2 sequence (Q9P1Q5 1-309): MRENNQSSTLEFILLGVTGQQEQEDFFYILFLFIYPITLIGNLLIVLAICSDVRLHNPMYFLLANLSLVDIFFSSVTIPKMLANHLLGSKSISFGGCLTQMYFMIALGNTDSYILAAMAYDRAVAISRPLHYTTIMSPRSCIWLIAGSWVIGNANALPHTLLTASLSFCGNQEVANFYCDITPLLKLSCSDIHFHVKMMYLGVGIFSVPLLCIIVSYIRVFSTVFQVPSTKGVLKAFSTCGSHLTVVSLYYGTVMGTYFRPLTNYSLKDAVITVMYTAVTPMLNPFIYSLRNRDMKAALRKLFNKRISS
Experimental: as §1, §2

[1] = OR2W1, 95% CI (profile likelihood)
[2] = three-parameter fit, 95% CI (profile likelihood)

Compound	activation of OR2W1 in dose-responses (OR2W1)	Bottom (OR2W1; [1])	Top (OR2W1; [1])	activation of OR1A1 in dose-responses (OR1A1)	EC50 (OR1A1; 95% CI) [µM]	Bottom (OR1A1; 95% CI (profile likelihood))	Top (OR1A1; 95% CI (profile likelihood))	normilazed value = (L-400/R-400) (OR1A1; M = -3.5)	normilazed value = (L-400/R-400) (OR1A1; M = -3.75)	normilazed value = (L-400/R-400) (OR1A1; M = -4)	normilazed value = (L-400/R-400) (OR1A1; M = -4.25)	normilazed value = (L-400/R-400) (OR1A1; M = -4.5)	normilazed value = (L-400/R-400) (OR1A1; M = -4.75)	normilazed value = (L-400/R-400) (OR1A1; M = -5)	normilazed value = (L-400/R-400) (OR1A1; M = -5.25)	normilazed value = (L-400/R-400) (OR1A1; M = -5.5)	normilazed value = (L-400/R-400) (OR1A1; M = -5.75)	normilazed value = (L-400/R-400) (OR1A1; M = -6)	EC50 (OR1A1; [2]) [µM]	LogEC50 (OR1A1; [2])	other results
C=Cc1ccc(OCCCCOc2ccc(C=C)cc2)cc1 [1-Ethenyl-4-[4-(4-ethenylphenoxy)butoxy]benzene]	non-agonist	13.33 to 18.34	19.48 to 21.36																		normilazed value = (L-400/R-400) (OR2W1; OR2W1, log[molecule], M = -3.5, listed as 1,4 bis(4-vinylphenoxy)butane): 14.9951 and 16.6432 and 18.6473; normilazed value = (L-400/R-400) (OR2W1; OR2W1, log[molecule], M = -3.75, listed as 1,4 bis(4-vinylphenoxy)butane): 18.9044 and 23.5612 and 19.9145; normilazed value = (L-400/R-400) (OR2W1; OR2W1, log[molecule], M = -4, listed as 1,4 bis(4-vinylphenoxy)butane): 20.1703 and 23.9778 and 22.651; normilazed value = (L-400/R-400) (OR2W1; OR2W1, log[molecule], M = -4.25, listed as 1,4 bis(4-vinylphenoxy)butane): 19.282 and 20.5728 and 18.4952; normilazed value = (L-400/R-400) (OR2W1; OR2W1, log[molecule], M = -4.5, listed as 1,4 bis(4-vinylphenoxy)butane): 18.9465 and 18.6061 and 21.68; normilazed value = (L-400/R-400) (OR2W1; OR2W1, log[molecule], M = -4.75, listed as 1,4 bis(4-vinylphenoxy)butane): 18.1682 and 21.4587 and 25.3103; normilazed value = (L-400/R-400) (OR2W1; OR2W1, log[molecule], M = -5, listed as 1,4 bis(4-vinylphenoxy)butane): 19.2619 and 21.2657 and 21.338; normilazed value = (L-400/R-400) (OR2W1; OR2W1, log[molecule], M = -5.25, listed as 1,4 bis(4-vinylphenoxy)butane): 22.445 and 21 and 22.2921; normilazed value = (L-400/R-400) (OR2W1; OR2W1, log[molecule], M = -5.5, listed as 1,4 bis(4-vinylphenoxy)butane): 19.9195 and 18.3482 and 19.8887; normilazed value = (L-400/R-400) (OR2W1; OR2W1, log[molecule], M = -5.75, listed as 1,4 bis(4-vinylphenoxy)butane): 21.6432 and 19.6062 and 21.4331; normilazed value = (L-400/R-400) (OR2W1; OR2W1, log[molecule], M = -6, listed as 1,4 bis(4-vinylphenoxy)butane): 16.9263 and 20.1438 and 17.6109
CCOc1ccc2ccccc2c1 [2-Ethoxynaphthalene]	activated OR2W1 in a dose-response manner	9.687 to 19.33	32.32 to 36.67																		potency relative to the strongest OR2W1 agonist of Bushdid et al. (OR2W1; OR2W1, comparison with ref 14): two times more potent; normilazed value = (L-400/R-400) (OR2W1; OR2W1, log[molecule], M = -3.5): 30.4896 and 23.1676 and 21.7127; normilazed value = (L-400/R-400) (OR2W1; OR2W1, log[molecule], M = -3.75): 33.5459 and 34.0167 and 35.7983; normilazed value = (L-400/R-400) (OR2W1; OR2W1, log[molecule], M = -4): 29.5332 and 32.1424 and 36.1752; normilazed value = (L-400/R-400) (OR2W1; OR2W1, log[molecule], M = -4.25): 38.6596 and 38.9119 and 38.3122; normilazed value = (L-400/R-400) (OR2W1; OR2W1, log[molecule], M = -4.5): 28.5017 and 40.4493 and 38.4842; normilazed value = (L-400/R-400) (OR2W1; OR2W1, log[molecule], M = -4.75): 39.1645 and 34.3635 and 36.5051; normilazed value = (L-400/R-400) (OR2W1; OR2W1, log[molecule], M = -5): 30.1654 and 33.9031 and 33.7738; normilazed value = (L-400/R-400) (OR2W1; OR2W1, log[molecule], M = -5.25): 31.8777 and 31.6329 and 33.9788; normilazed value = (L-400/R-400) (OR2W1; OR2W1, log[molecule], M = -5.5): 30.0044 and 26.9494 and 25.4775; normilazed value = (L-400/R-400) (OR2W1; OR2W1, log[molecule], M = -5.75): 22.1602 and 26.5902 and 25.5852; normilazed value = (L-400/R-400) (OR2W1; OR2W1, log[molecule], M = -6): 23.2783 and 19.1056 and 20.6534; EC50 (OR2W1; OR2W1, three-parameter fit, 95% CI (profile likelihood)): 0.659 to 3.05 µM; LogEC50 (OR2W1; OR2W1, three-parameter fit, 95% CI (profile likelihood), log[molecule], M): -6.181 to -5.515
CCOC(=O)Cc1cccc(Br)c1 [Ethyl 2-(3-bromophenyl)acetate]				able to activate OR1A1	11.5 to 24.4	0.4401 to 2.007	11.66 to 13.55	9.12 and 11.0639 and 10.393	11.9065 and 11.6251 and 11.7476	13.3839 and 12.372 and 11.9409	8.912 and 11.2901 and 12.3912	7.943 and 8.382 and 10.0109	5.611 and 6.9779 and 6.123	5.045 and 5.149 and 4.806	3.622 and 3.689 and 4.46	2.564 and 3.159 and 3.452	2.1766 and 2.696 and 2.931	1.855 and 2.338 and 2.234	11.5 to 24.4	-4.940 to -4.613	
COC(=O)Cc1ccccc1C [Methyl 2-(2-methylphenyl)acetate]				able to activate OR1A1	12.2 to 25	0.03511 to 1.535	11.79 to 13.66	10.0524 and 12.0337 and 11.3132	12.5278 and 11.5014 and 12.1842	10.2366 and 11.6676 and 13.2311	7.699 and 8.952 and 12.582	7.699 and 8.491 and 8.724	5.333 and 7.756 and 8.263	4.586 and 4.422 and 5.725	3.435 and 3.266 and 4.088	2.183 and 2.432 and 2.624	1.457 and 1.905 and 2.354	1.1663 and 1.179 and 1.777	12.2 to 25	-4.914 to -4.603	
